The text below walks through data of patent publication US12338203B2 (TAISHO PHARMACEUTICAL CO., LTD., priority 2019, dated 2025).

The target in the assay is T1, human LPAR1 (Homo sapiens, UniProt Q92633).
T1 construct: expressed in transfected cells
T1 sequence (Q92633 whole entry): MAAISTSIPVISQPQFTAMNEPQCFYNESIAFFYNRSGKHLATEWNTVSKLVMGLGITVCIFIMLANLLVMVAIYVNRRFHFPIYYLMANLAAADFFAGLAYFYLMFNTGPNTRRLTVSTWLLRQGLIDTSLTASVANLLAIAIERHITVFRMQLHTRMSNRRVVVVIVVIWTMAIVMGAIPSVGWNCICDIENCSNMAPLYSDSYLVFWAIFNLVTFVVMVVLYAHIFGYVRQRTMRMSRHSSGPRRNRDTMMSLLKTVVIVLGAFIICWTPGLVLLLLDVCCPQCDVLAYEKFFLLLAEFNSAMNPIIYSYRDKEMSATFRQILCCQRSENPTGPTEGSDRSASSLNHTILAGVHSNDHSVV
The experiment in a line: Test Example 1: antagonism against response of LPA-induced increase in intracellular Ca2+ concentration in RH7777 cells stably expressing human LPAR1. It is filed as cell-based. Conditions: RH7777 cells stably expressing human LPAR1; Fluo-4 fluorescence, FDSS6000; read-out: IC50 value (concentration producing 50% antagonism against response of LPA-induced increase in intracellular Ca2+ concentration) (converted). On the procedure: (1) Preparation of RH7777 cells stably expressing human LPAR1
The human LPAR1 expression vector was transfected into RH7777 cells to acquire human LPAR1 expressing cells.
(2) Test of antagonism against response of LPA-induced increase in intracellular Ca^2+ concentration
Cells stably expressing human LPAR1 were used for a test of antagonism against response of LPA-induced increase in intracellular Ca^2+ concentration.
The cells were seeded onto the Poly-D-Lysine 96 well black plate and incubated overnight. […] 50 μL of the Basal Buffer (1×HBSS, 20 mM HEPES, 2.5 mM Probenecid, 0.05% BSA, 0.25 mg/mL Amaranth, pH 7.4) containing the test compound was added thereto, followed by incubation at 37° C. for 30 minutes. In FDSS6000 (Hamamatsu Photonics K.K.), LPAs were added, and the change in intracellular Ca^2+ concentration was detected using the fluorescence value of a wavelength of 540 nm by an excitation wavelength of 480 nm as an indicator. […] The Rmax under […] without the test compound was used as the control value. The Rmax under Basal Buffer stimulation with no LPAs or test compounds was used as the basal value.
The percentage (%) of increase in intracellular Ca^2+ concentration was calculated by dividing the value obtained by subtracting the basal value from Rmax in the presence of LPAs and each concentration of the test compound by the value obtained by subtracting the basal value from the control value. The concentration of each test compound was plotted on the X axis and the percentage (%) of increase in intracellular Ca^2+ concentration was plotted on the Y axis, and the IC50 value was calculated by nonlinear regression using XLfit.
On to `CCOc1cc([C@@H](C)N(CCCCc2ccccc2)C(=O)NC2(C(=O)O)CC2)cc(OCC)c1C1CC1` [Example 1-18], for which the IC50 is 1.09 nM. Take `CC(c1cc(Cl)cc(Cl)c1F)N(CCCCc1ccccc1)C(=O)NC1(C(=O)O)CC(F)(F)C1` (centres unmarked) [Example 1-80]: the IC50 is 13.1 nM. The result for `COc1cc(C(C)N(CCOCc2ccccc2)C(=O)NC2(C(=O)O)CC(OC)C2)c(Cl)c(OC)c1C1CC1` (centres unmarked) [Example 5-153] reads 0.961 nM; that for `CCOc1cc(C(C)N(CCO[C@@H](C)c2ccccc2)C(=O)N[C@]2(C(=O)O)C[C@H](OCC)C2)cc(OCC)c1C(C)O` (some centres unmarked) [Example 4-133], 5.7 nM; that for `CCOc1c(C(C)(C)O)ccc([C@@H](C)N(CCCCc2ccccc2)C(=O)NC2(C(=O)O)CC(OCC)C2)c1C` (some centres unmarked) [Example 1-104], 10.3 nM. With `Cc1cc(C)cc(CN(CCCCc2ccccc2)C(=O)NC2(C(=O)O)CCCC2)c1` [Example 5-23], the IC50 is 3930 nM.

For `CCOc1cc([C@@H](C)N(CCO[C@H](C)c2ccccc2)C(=O)NC2(C(=O)O)CC(F)(F)C2)cc(OCC)c1C1CC1` [Example 4-150], the IC50 is 1.55 nM. The result for `CCOc1cc([C@@H](C)N(CCOCc2ccccc2)C(=O)NC2(C(=O)O)CCOCC2)cc(OCC)c1C(C)=O` [Example 4-110] reads 4.31 nM. `CCOc1cc(C(C)N(CCCCc2ccccc2)C(=O)NC2(C(=O)O)CC(F)(F)C2)cc(OCC)c1C1(O)CC1` (centres unmarked) [Example 1-38]: the IC50 is 5.4 nM. The result for `CCOc1c(C(C)=O)ccc([C@@H](C)N(CCO[C@H](C)c2ccccc2)C(=O)NC2(C(=O)O)CC(OCC)C2)c1C` (some centres unmarked) [Example 4-158] reads 4.39 nM; that for `CCOc1cc(C(C)N(CCOC(C)c2ccccc2)C(=O)NC2(c3nn[nH]n3)CC(OC)C2)cc(OCC)c1C1CC1` (centres unmarked) [Example 10-15], 2.38 nM. For `CCOc1cc([C@@H](C)N(CCCC(F)(F)c2ccccc2)C(=O)NC2(C(=O)O)CCOCC2)cc(OCC)c1C1(O)CC1` [Example 4-74], the IC50 was 50.5 nM. For the compound `CCOc1cc(C(C)N(CCCCc2ccccc2)C(=O)NC2CC(CC(=O)O)C2)cc(OCC)c1C` (centres unmarked) [Example 1-148], the IC50 was 25.5 nM. As to `CCOc1cc([C@@H](C)N(CCCC(F)(F)c2ccccc2)C(=O)NC2(C(=O)O)CC(F)(F)C2)cc(OCC)c1C1(O)CC1` [Example 4-57], the IC50 was 4.47 nM. On to `CCOc1cc([C@@H](C)N(CCCCc2ccccc2)C(=O)NC2(C(=O)O)CC2)cc(OCC)c1C(C)=O` [Example 1-16, 1-({[(1R)-1-(4-Acetyl-3,5-Diethoxyphenyl)Ethyl](4-Phenylbutyl) Carbamoyl}Amino)Cyclopropane-1-Carboxylic Acid], for which the IC50 was 2.23 nM. With `CCOc1cc([C@@H](C)N(CCO[C@@H](C)c2ccccc2)C(=O)NC2(C(=O)O)CC(OC)C2)cc(OCC)c1C1CC1` (stereo partly drawn) [Example 4-129, cis-1-[([(1R)-1-(4-cyclopropyl-3,5-diethoxyphenyl)ethyl]{2-[(1S)-1-phenylethoxy]ethyl}carbamoyl)amino]-3-methoxycyclobutane-1-carboxylic acid], the IC50 was 1.03 nM. `CCOc1c(C(C)=O)ccc([C@@H](C)N(CCCC(F)(F)c2ccccc2)C(=O)NC2(C(=O)O)CCOCC2)c1C` [Example 4-78]: the IC50 was 8.44 nM. For the compound `CCOc1cc(C(C)N(CCO[C@@H](C)c2ccccc2)C(=O)NC2(C(=O)O)CC(OCC)C2)c(Cl)c(OCC)c1C1CC1` (some centres unmarked) [Example 5-222], the IC50 was 1.79 nM. On to `CCOc1cc([C@@H](C)N(CCOCc2ccccc2)C(=O)NC2(C(=O)O)CC(F)(F)C2)c(Cl)c(OCC)c1C(C)O` (single isomer, unassigned) [Example 5-56], for which the IC50 was 1.04 nM. Take `CCOc1cc([C@@H](C)N(CCOCc2ccccc2)C(=O)NC2CCOCC2C(=O)O)c(Cl)c(OCC)c1C(C)O` (single isomer, unassigned) [Example 5-69]: the IC50 is 3.3 nM. As to `CCOc1cc(C(C)N(CCOCc2ccccc2)C(=O)NC2(C(=O)O)CCC2)c(C)c(OCC)c1C1CC1` (centres unmarked) [Example 5-192], the IC50 was 0.47 nM. The result for `CCOC1CC(NC(=O)N(CCOC(C)c2ccccc2)C(C)c2cc(OC)c(C3CC3)c(OC)c2C)(C(=O)O)C1` (centres unmarked) [Example 5-169] reads 7.97 nM. In the case of `CCOc1cc(C(C)N(CCO[C@@H](C)c2ccccc2)C(=O)NC2(C(=O)OC(C)(C)C)CC2)c(Cl)c(OCC)c1C(C)=O` (some centres unmarked) [Example 6-13] it was 3040 nM; in that of `CCOc1cc([C@@H](C)N(CCCCc2ccccc2)C(=O)NC2(C(=O)O)CCC2)cc(OCC)c1C(C)O` (single isomer, unassigned) [Example 1-22], 1.47 nM. The result for `CCOc1cc(C(C)N(CCCCc2ccccc2)C(=O)NC2(C(=O)O)CC(F)(F)C2)ccc1C(C)O` (centres unmarked) [Example 5-9] reads 2.82 nM.

On to `CCOc1cc(C(C)N(CCCCc2ccccc2)C(=O)NC2(C(=O)O)CC(F)(F)C2)cc(OCC)c1C(C)O` (centres unmarked) [Example 1-34], for which the IC50 was 1.99 nM. In the case of `CCOc1cc([C@@H](C)N(CCC(F)(F)Cc2ccccc2)C(=O)NC2(C(=O)O)CCOCC2)cc(OCC)c1C(C)=O` [Example 4-95] it was 37.4 nM; in that of `CCOc1cc([C@@H](C)N(CCO[C@@H](C)c2ccccc2)C(=O)NC2(C(=O)O)CCOCC2)cc(OCC)c1C(C)O` (single isomer, unassigned) [Example 4-143], 47.4 nM; in that of `CCOc1cc(C(C)N(CCCCc2ccccc2)C(=O)NC2(P(=O)(O)O)CCCC2)cc(OCC)c1C` (single isomer, unassigned) [Example 8-2], 20 nM.

With `CCOc1cc([C@@H](C)N(CCO[C@H](C)c2ccccc2)C(=O)NC2(C(=O)O)CC(F)(F)C2)cc(OCC)c1C(C)=O` [Example 4-149], the IC50 was 3.4 nM. In the case of `CCOc1cc([C@@H](C)N(CCO[C@@H](C)c2ccccc2)C(=O)N[C@]2(C(=O)O)C[C@@H](OCC)C2)cc(OCC)c1C(C)O` (some centres unmarked) [Example 4-136] it was 3.43 nM; in that of `CCNc1cc(C(C)N(CCCCc2ccccc2)C(=O)NC2(C(=O)O)Cc3ccccc3C2)cc(OCC)c1C(C)=O` (centres unmarked) [Example 5-104], 20.7 nM. Regarding `CCOc1cc([C@@H](C)N(CCCCc2ccccc2)C(=O)N[C@]2(C(=O)O)C[C@H](OC)C2)c(Cl)c(OCC)c1C(C)=O` [Example 5-49], the IC50 was 3.88 nM. In the case of `CCOc1cc(C(C)N(CCO[C@@H](C)c2ccccc2)C(=O)NC2(C(=O)OC(C)(C)C)CC(OCC)C2)c(Cl)c(OCC)c1C(C)=O` (some centres unmarked) [Example 6-15] it was 3340 nM; in that of `CCO[C@H]1C[C@@](NC(=O)N(CCO[C@@H](C)c2ccccc2)C(C)c2cc(OC)c(C(C)=O)c(OC)c2)(C(=O)O)C1` (some centres unmarked) [Example 5-126], 26.1 nM. The result for `CCOc1cc(C(C)N(CCO[C@@H](C)c2ccccc2)C(=O)NC2(C(=O)OC(C)(C)C)CC(OCC)C2)cc(OCC)c1C(C)=O` (some centres unmarked) [Example 6-14] reads 3530 nM. In the case of `CCOc1cc([C@@H](C)N(CCO[C@@H](C)c2ccccc2)C(=O)NC2(C(=O)O)CC(OC)C2)cc(OCC)c1C(C)O` (some centres unmarked) [Example 4-126], the IC50 was 3.91 nM. The result for `CCOc1cc([C@@H](C)N(CCCCc2ccccc2)C(=O)N[C@]2(C(=O)O)C[C@@H](OC)C2)cc(OCC)c1C(C)=O` [Example 1-86, Trans-1-({[(1R)-1-(4-Acetyl-3,5-Diethoxyphenyl)Ethyl](4-Phenylbutyl) Carbamoyl}Amino)-3-Methoxycyclobutane-1-Carboxylic Acid] reads 2.33 nM; that for `CCOc1cc(C(C)N(CCOC(C)c2ccccc2)C(=O)NC2(C(=O)O)CC2)c(Cl)c(OCC)c1C(C)=O` (centres unmarked) [Example 5-187], 4.16 nM. The result for `CCOC1CC(NC(=O)N(CCOCc2ccccc2)[C@H](C)c2cc(OC)c(C)c(OC)c2)(C(=O)O)C1` (some centres unmarked) [Example 4-165] reads 4.85 nM; that for `CC(c1cc(Cl)cc(Cl)c1)N(CCCCc1ccccc1)C(=O)NC1(C(=O)O)CC(F)(F)C1` (centres unmarked) [Example 5-21], 17.1 nM. Turning to `CCOc1cc([C@@H](C)N(CCCCc2ccccc2)C(=O)NC2(C(=O)O)CC(N3CCN(C)CC3)C2)cc(OCC)c1C` (some centres unmarked) [Example 1-109], the IC50 is 312 nM. The result for `CCOC(=O)C1(NC(=O)N(CCO[C@@H](C)c2ccccc2)C(C)c2cc(OCC)c(C(C)=O)c(OCC)c2Cl)CC(OCC)C1` (some centres unmarked) [Example 6-10] reads 1040 nM.

`CCOc1cc(C(C)N(CCOCc2ccccc2)C(=O)NC2(C(=O)O)CC(OC)C2)cc(OCC)c1C1CC1` (centres unmarked) [Example 5-204]: the IC50 is 0.882 nM. Consider `CCOc1cc(C(C)N(CCCCc2ccccc2)C(=O)NC2(C(=O)O)CC(C)(C)C2)cc(OCC)c1C(C)=O` (centres unmarked) [Example 1-84], for which the IC50 is 3.12 nM. In the case of `CCOc1cc([C@@H](C)N(CCCCc2ccccc2)C(=O)NC2(C(=O)O)CNC2)cc(OCC)c1C` [Example 1-158, 3-({[(1R)-1-(3,5-Diethoxy-4-Methylphenyl)Ethyl](4-Phenylbutyl) Carbamoyl}Amino) Azetidine-3-Carboxylic Acid] it was 294 nM; in that of `CCOc1cc(C(C)N(CCOCc2ccccc2)C(=O)NC2(C(=O)O)CC(OCC)C2)cc(OCC)c1C1CC1` (centres unmarked) [Example 5-219], 0.813 nM.
